Measured values reported in patent US12036214B2, “Solid dispersion comprising an anticancer compound for improved solubility and efficacy” (COUNCIL OF SCIENTIFIC AND INDUSTRIAL RESEARCH, priority 2018, dated 2024).
Values joined by “and” are separate entries in the source; they are usually repeats but may differ in a detail not shown here. Equal entries are not always repeated.

Assays:
[1] = test system: Ehrlich Ascites Carcinoma (EAC) cells; assay: Ehrlich solid tumor model; assay type: in vivo
Experimental: Novel oral solid dispersion containing anticancer compound of formula A was tested for in-vivo anticancer activity using Ehrlich Solid Tumor model. In this model, after oral administration of formulation VKB-SD75 and the compound of formula A in male Swiss mice up to 9 days, the % tumor growth inhibition was calculated on 13th day.
The in-vivo efficacy testing of best identified solid dispersion formulation VKB-SD75 was done using Ehrlich solid tumor model, parallelly with the compound of Formula A. Ehrlich Ascites Carcinoma (EAC) cells were collected from the peritoneal cavity of the Swiss mice weighing 18-23 g, harboring 8-10 days old ascetic tumor. 1×10^7 EAC cells were injected intramuscularly in the right thigh of Swiss male mice selected for the experiment on day 0. The next day, animals were randomized and divided into 8 groups. Seven treatment groups contained 7 animals each and one control groups contained 10 animals each. Treatment group 1-6 were treated with the compound of formula A and solid dispersion formulation at different dose strength once daily from day 1-9. The seventh treatment group was treated with 5-fluorouracil (22 mg/kg, i.p.) from day 1-9 and it served as positive control. The control group was similarly administered normal saline (0.2 ml, i.p) from day 1-9. On day 9 & 13, tumor-bearing thigh of each animal was shaved, and longest and shortest diameters of the tumor were measured with the help of vernier caliper. The percent tumor growth inhibition was calculated on day 13 by comparing the average values of treated groups with that of the control group. Tumor growth in saline-treated control animals was taken to be 100%.

[2] = male, BALB/c, mouse, in vivo, po, 50 mg/kg
Experimental: (§2) The vehicle used for PK study was 1% v/v Tween 80 in 0.5% sodium CMC in water. Blood samples were collected (n=3/time point) at 0.083 (IV only), 0.25, 0.5, 1, 2, 4, 8 and 24 h, post-dose. At each time point about 200 μL of blood was collected by jugular vein into a labeled microfuge tube containing 200 mM K2EDTA solution (20 μL per mL of blood) and equivalent volume of heparinized saline was replaced following sample collection. The blood samples were processed to obtain the plasma samples within 30 min of scheduled sampling time. All plasma samples were stored below −60° C. until bioanalysis. […] The pharmacokinetic parameters of compound of formula A were calculated using the non-compartmental analysis tool of validated Phoenix® WinNonlin® software (version 6.3).

[3] = In-vitro dissolution, USP type-2 paddle apparatus, sink conditions; assay type: physicochemical; conditions: 50 rpm, 37° C.
Experimental: (§1) The water solubility of prepared solid dispersions along with compound of Formula A was determined using shake flask method, wherein the analysis was done by HPLC. The in-vitro dissolution studies were performed using U.S.P. type-2 (paddle type) dissolution apparatus at a speed of 50 rpm, and temperature of 37° C.±0.5, using 250 ml of dissolution media (0.25% SLS containing water and phosphate buffer pH 6.8 up to 6 h). Further, the solid dispersions were characterized using different analytical techniques such as DSC, FTIR, XRD, etc.
The dissolution profile of compound and solid dispersion formulation VKB-SD75 was studied in sink conditions. For the sink condition, 0.25% SLS was added to dissolution media and dissolution was studied in water and pH 6.8 phosphate buffer (Ilevbare, G. A. et al., Pharmaceutical amorphous solid dispersions, Eds. John Wiley & Sons 2015, pp. 218). The dissolution studies were carried out using Lab-India Dissolution Tester (Model: DS 8000; apparatus 2—Paddle Apparatus) at 50 rpm and 37° C.±0.5 and dissolution media volume was 250 mL. Formulation equivalent to 10 mg of compound was added to each dissolution vessel in triplicate and 1 ml sample was taken and replaced by fresh dissolution media at different time points (0.25, 0.50, 1, 2, 4, 6 hrs).
The percentage drug dissolved was determined by HPLC analysis. […]

MIAPaCa-2 = conditions: read-out: MIAPaCa-2 cell growth GI50; cited from earlier work
pancreatic xenograft = conditions: 50 mg/kg, po; cited from earlier work
Lipophilicity (log P) = assay type: physicochemical
leukemia xenograft = conditions: 50 mg/kg, po; cited from earlier work
[4] = test system: cancer cells over normal fibroblast-cells; conditions: cited from earlier work
physchem = conditions: 37 °C, water, thermodynamic from solid
[5] = pH dependent stability in buffers, SGF, SIF and plasma; assay type: physicochemical; conditions: pH 1.2, pH 4.0, pH 6.8, PBS pH 7.4, SGF (pH 1.2), SIF (pH 6.8) and plasma, upto 24 hrs
Experimental: The stability of compound was performed in pH 1.2 buffer, pH 4.0 buffer, phosphate buffer pH 6.8, phosphate buffered saline pH 7.4, SGF (pH 1.2), SIF (pH 6.8) and plasma upto 24 hrs. The % compound hydrolyzed or degraded was determined by HPLC analysis.

[6] = Water solubility by shake flask method with HPLC analysis; assay type: physicochemical; conditions: distilled water, 25 °C, thermodynamic from solid
Experimental: as §1
Solid dispersions were formulated as different formulations containing anticancer compound (formula A) along with different polymers in different proportions as shown in Table 1 and 2. First the anticancer compound and various excipients/hydrophilic polymers were weighed accurately. Both the compound and polymers were dissolved in methanol. Those polymers which were insoluble in methanol were dissolved in water. […] After complete drying, the water solubility of compound was determined by shake-flask method followed by […] analysis. […]
The water solubility of formulations prepared in Example 4 and compound of Formula A was determined in each well of plate containing different solid dispersion formulations. […] The supernatant was then analyzed by RP-HPLC.

Molt-4 = conditions: read-out: Molt-4 cell growth GI50; cited from earlier work
in vivo = conditions: male, BALB/c, mouse, po, 50 mg/kg
Experimental: as §2

colon xenograft = conditions: 50 mg/kg, po; cited from earlier work
CYP/efflux-pump = conditions: cited from earlier work

SMILES: O=c1[nH]cc(F)c(=O)[nH]1 [Formulation 5-FU, 5-fluorouracil, reference compound]
- Mortality ([1]; 22 mg/kg, i/p): 0/7
- % Tumor growth inhibition on 13th day ([1]; 22 mg/kg, i/p, day 1-9): 49.44 ± 6.32%

SMILES: CN1CC[C@H](c2c(O)cc(O)c3c(=O)cc(/C=C/c4c(Cl)cccc4Cl)oc23)[C@H](O)C1 [Compound of formula A, (1′R,2′S)-2-(2,6-dichlorostyryl)-5,7-dihydroxy-8-(3-hydroxy-1-methylpiperidin-4-yl)-4H-chromen-4-one]
- AUClast [2]: 2570 ng·h/mL
- Cmax [2]: 656 ng/mL
- % drug dissolution ([3]; phosphate buffer pH 6.8, 0.25% SLS, after 1 h): 63%
- % drug dissolved ([3]; water containing 0.25% SLS, after 2 h): 49.15%
- GI50 (MIAPaCa-2): < 1000 nM
- in-vivo efficacy in pancreatic xenograft (pancreatic xenograft): showed in-vivo efficacy
- log P (Lipophilicity (log P)): 3.10
- Mortality ([1]; 50 mg/kg p.o): 0/7
- % Tumor growth inhibition on 13th day ([1]; 50 mg/kg p.o, once daily day 1-9): 24.75% and 24.75 ± 3.52%
- Mortality ([1]; 75 mg/kg p.o.): 0/7
- % Tumor growth inhibition on 13th day ([1]; 75 mg/kg p.o., once daily day 1-9): 30.92% and 30% and 30.92 ± 5.32%
- Mortality ([1]; 100 mg/kg p.o.): 0/7
- % Tumor growth inhibition on 13th day ([1]; 100 mg/kg p.o., once daily day 1-9): 38.63 ± 3.65%
- in-vivo efficacy in leukemia xenograft (leukemia xenograft): showed in-vivo efficacy
- selectivity for cancer cells over normal fibroblast-cells [4]: highly selective
- solubility at 120 min (physchem): 10 to 20 µg/mL
- % drug remaining [5]: > 95%
- solubility at 24 h [6]: 10 to 20 µg/mL
- GI50 (Molt-4): < 1000 nM
- Tmax (in vivo): 1 h
- in-vivo efficacy in colon xenograft (colon xenograft): showed in-vivo efficacy
- CYP/efflux-pump liability (CYP/efflux-pump): did not have CYP/efflux-pump liability
